# Measured values as given in PMC11820896, “New Compounds with Enhanced Biological Activity Through the Strategic Introduction of Silylated Groups into Hydroxystearic Acids” (Molecules, 2025).
# Assays:
# SCD1 = SCD1 protein, Western blot; assay type: cell-based, human; conditions: 50 nM, 48 h, HT29
# Experimental: (§1) HT29 cells were seeded at a density of 5.0 × 10^4 cells/cm^2 in a Petri dish and treated with 50 nM of compound 4 for 48 h. Cells were then washed with PBS and incubated with the lysis buffer radio immunoprecipitation assay (RIPA) at 4 °C for 15 min with agitation. The proteins were quantified using the Bio-Rad protein assay (Bio-Rad, Hercules, CA, USA) and analyzed by SDS-PAGE and Western blot.
# (§2) For the analysis of protein phosphorylation, protein samples (30 μg) were separated on 12% SDS-PAGE in Tris-glycine buffer by electrophoresis at 200 V for 1 h. […] Densitometric analysis was performed with ImageLab 6.1 software (Bio-Rad, Hercules, CA, USA), and bands were normalized to the respective total protein content. For SCD1 analysis, protein samples were resolved on a 10% gel in MOPS buffer at 200 V for 45 min. After electrophoresis and Western blot, the nitrocellulose membrane was incubated overnight at 4 °C with primary antibody anti-SCD1 (Biorbyt, Durham, NC, USA) diluted in PBS-TWEEN 20 0.1%. The membrane was incubated for 1 h with a secondary horseradish peroxidase-conjugated antibody (GE Healthcare, Chicago, IL, USA) and then detected as described above. Quantification was completed by a Fluor-S Max MultiImager (Bio-Rad, Hercules, CA, USA) using a β-tubulin signal as a control.
# HT29 cells [1] = experiment: Cellular content of total magnesium (DCHQ5 assay); assay type: cell-based, human; conditions: 24 h treatment
# Experimental: To evaluate the total magnesium, the fluorimetric DCHQ5 assay was performed according to Nature Protocol. Briefly, the cells were washed in PBS without Mg and Ca three times, accurately counted, and sonicated at 100 W. A standard curve was prepared with a concentration of MgCl2 between 0.5 and 5 µM in buffer MOPS 2 mM in 50% MetOH. The fluorescent probe DCHQ5 15 µM was added, and the fluorescence was recorded on a PTI Quanta Master C60/2000 spectrofluorometer (Photon Technology International, Inc., Birmingham, NJ, USA). A total of 200 µL of the samples was diluted in the MOPS MetOH buffer, DCHQ5 15 µM was added, and the fluorescence was recorded. The amount of Mg was evaluated by interpolating the fluorescence of the sample with respect to the standard curve expressed as nmoles of magnesium/10^6 cells.
# MTT assay, Caco-2 cells = assay type: cell-based, human; conditions: human, versus normal I407 cells, read-out: S.I. (Selective Index), Caco-2
# Experimental: (§3) The human colorectal adenocarcinoma (Caco-2), human colorectal adenocarcinoma (HT29), normal human intestinal (I407), human cervical cancer (HeLa), human breast cancer (MCF7), human bone osteosarcoma (U2OS), and human acute T-cell leukemia (Jurkat J6) cell lines were purchased from American Type Culture Collection (ATCC, Manassas, VA, USA). Cells were cultured in RPMI 1640 medium (Labtek Eurobio, Milan, Italy), supplemented with 10% FCS (Euroclone, Milano, Italy) and 2 mM L-glutamine (Sigma-Aldrich, Milano, Italy), at 37 °C and in a 5% CO2 atmosphere. The compounds were dissolved in DMSO in a 30–40 mM stock solution. In cell treatments, the final DMSO concentration never exceeded 0.1%.
# (§4) Cells were seeded in a 96-well culture plastic plate (Sarsted, Milan, Italy), at 5 × 10^4 cells/well and, after 24 h, were exposed to increasing concentrations of the different compounds (from 1 nM to 500 nM) dissolved in RPMI 1640 medium. An MTT assay was performed according to Micheletti et al..
# (§5) The absorbance at 570 nm was measured using a multi-well plate reader (Tecan, Männedorf, Switzerland), and data were analyzed by Prism GraphPad 8 software and expressed as IC50 nM.
# Caco-2 = experiment: MTT assay, Caco-2 cells; assay type: cell-based, human; conditions: Homo sapiens, MTT after 24 h of treatment, means of four experiments
# Experimental: as §3, §4, §5
# U2OS = experiment: MTT assay, U2OS cells; assay type: cell-based; conditions: Homo sapiens, means of four experiments, na = not active, read-out: In vitro cytotoxic activity (IC50), U2OS
# Experimental: as §3, §4, §5
# I407 = experiment: MTT assay, normal I407 cells; assay type: cell-based; conditions: Homo sapiens; normal intestinal line; MTT after 24 h of treatment; means of four experiments
# Experimental: as §3, §4, §5
# HCT116 = experiment: MTT assay, HCT116 cells; assay type: cell-based, human
# Experimental: as §4, with “Micheletti et” left out, “al.. The absorbance at 570 nm was measured using a multi-well plate reader (Tecan, Männedorf, Switzerland), and data were analyzed by Prism GraphPad 8 software and expressed as IC50 nM.” for “al..”
# HT29 cells [2] = experiment: Western blot of γH2AX (DNA damage); assay type: cell-based, human; conditions: 50 nM, 6 h
# Experimental: HT29 were seeded at a density of 1.5 × 10^4 cell/cm^2 in a Petri dish and, after 24 h, treated for 6 h with 50 nM of compound 4. Cells were harvested, and histones were extracted by previously isolated nuclei according to […] al.. The proteins were resolved on a 10% gel in MES buffer at 200 V for 35 min and immunoblotted with mouse anti-acetylated lysines (Millipore, Billerica, MA, USA) or rabbit anti-γH2Ax (Santa Cruz Biotechnology, Dallas, TX, USA) primary antibodies. The membranes were developed with Clarity Western ECL Substrate (Bio-Rad, Hercules, CA, USA) after incubation with mouse or rabbit secondary horseradish peroxidase-conjugated antibody (GE Healthcare, Chicago, IL, USA). SDS-PAGE was stained with Coomassie Brilliant Blue R-250 (Bio-Rad, Hercules, CA, USA), while densitometric analyses were performed using a Fluor-S Max MultiImager (Bio-Rad, Hercules, CA, USA), and relative quantification of histone acetylation and histone H2Ax phosphorylation signals were normalized to the H1 signal as a control.
# HT29 cells [3] = experiment: Western blot of tyrosine residue phosphorylation; assay type: cell-based, human; conditions: most at proteins above 50 KDa
# Experimental: as §1, §2
# J6 = experiment: MTT assay, Jurkat J6 cells; assay type: cell-based; conditions: Homo sapiens, means of four experiments, na = not active, read-out: In vitro cytotoxic activity (IC50), J6
# Experimental: as §3, §4, §5
structure (smiles),measurement,setting,value
"CCCCCCCCC[C@H](CCCCCCCC(=O)O)O[Si](C)(C)C(C)(C)C [Compound 4, (R)-9-((tert-butyldimethylsilyl)oxy)octadecanoic acid]",SCD1 protein amount,SCD1,decrease in the amount of its protein product
same,reduction in the Mg content,HT29 cells [1],−40%
same,selectivity ratio,"MTT assay, Caco-2 cells",2.65
same,IC50,Caco-2,23.39 ± 0.12 nM
same,IC50,U2OS,36.81 ± 0.18 nM
same,IC50,I407,61.91 ± 0.26 nM
same,IC50,"HCT116; Homo sapiens, HCT-116, MTT after 24 h of treatment, means of four experiments",21.49 ± 0.16 nM
same,"S.I. (Selective Index), HCT116",HCT116; versus normal I407 cells,2.88
same,changes in the γH2AX marker,HT29 cells [2],does not induce any changes
same,phosphorylation levels at tyrosine residues of proteins,HT29 cells [3],decrease in phosphorylation levels
same,IC50,J6,214.1 ± 0.26 nM
